Results from patent US6653064B1, “Method for identifying compounds useful in the therapy of bone disorders” (Boehringer Ingelheim International GmbH, priority 1999, dated 2003).

What was measured:
[1] = test system: endogenous fra-1; assay: RT-PCR analysis of fra-1 transcripts in primary osteoblast cultures; assay type: cell-based, mice; settings: wild-type osteoblasts, cultures 7 days after plating, not expressed without stimulation
Experimental: To further investigate the consequences of Fra-1 expression on osteoblasts, primary osteoblasts were prepared from the calvariae of neonatal (6-8 days old) mice and differentiated in vitro. Calvariae were sequentially digested for 10 minutes in α-MEM containing 0.1% collagenase and 0.2% dispase. Cells isolated by fractions 2 to 5 were combined as an osteoblastic cell population, expanded for 2 days in α-MEM with 10% FCS and replated at a density of 10^4 cells per cm^2. After reaching confluency, medium was supplemented with 5 mM β-glycerophosphate and 100 μg/ml ascorbic acid. There was no difference in the proliferation between wild-type and transgenic osteoblasts. The time course of differentiation was followed by ALP activity and by the deposition of mineralized extracelluar matrix. For ALP activity measurement, cells were washed with PBS and sonicated in 10 mM Tris-HCl buffer (pH 8.0). ALP activity in the lysate was measured using a calorimetric assay (Sigma). […] In transgenic cultures, areas of mineralized extracellular matrix monitored by alizarine red S staining were first observed at day 12, when no stained areas were present in wild-type cultures (FIG. 5b). […]
5′-GTACCGAGACTACGGGGAACCGG-3′ SEQ. […] Exogenous and endogenous fra-1 was detected in transgenic osteoblasts, irrespective of induction by phorbol myristate acetate (PMA) (FIG. 5c). […]

[2] = test system: Fra-1 expression; settings: substance known to induce Fra-1 expression (Yoshioka et al., 1995); cited from earlier work

Structure (SMILES)	expression of endogenous fra-1 upon stimulation [1]	Fra-1 expression in cultured cells [2]
CCCCCCCCCCCCCC(=O)O[C@@H]1[C@@H](C)[C@@]2(O)[C@@H](C=C(CO)C[C@]3(O)C(=O)C(C)=C[C@@H]23)[C@@H]2C(C)(C)[C@]12OC(C)=O [PMA, phorbol myristate acetate]	induced	
CC(C)(C)c1cc(O)ccc1O [tert-butylhydroquinone]		induce Fra-1 expression
